Experimental data published in patent US7438931B2, “Methods and compositions for the treatment of angiogenic diseases” (The Regents of The University of Michigan, priority 1998, dated 2008).
Several values for one entry are separate records, joined by “and”; a condition that tells them apart may be missing. Equal entries are not always repeated.

Tests used:
[1] = tested on: mouse sarcoma, MCA205, and a mouse melanoma, B16B16; assay: Mouse tumor model, injected tumor cells in C57B1/6J mice; type: in vivo
Method: Under these guidelines, anti-angiogenesis therapeutic studies were conducted using TM in a mouse tumor model. This study involved subcutaneous or intramuscular injection of tumor cells into young adult C57B1/6J mice. Two tumors were used, a mouse sarcoma, MCA205, and a mouse melanoma, B16B16. The MCA 205 tumor cell suspension was injected subcutaneously into C57B16 mice. After the tumors were palpable, copper deficiency was induced by use of TM in half the animals, using Cp levels to monitor copper status. The other half were sham treated. Tumor growth was compared between the untreated control group and mice treated with sufficient TM to reduce Cp to about 10% of normal controls.

[2] = in vivo, iv; cited from earlier work
metastatic solid tumors = assay: Phase I trial: clinical and radiologic response of metastatic cancer; type: in vivo, human
Excerpt: Patients with effusions or bone marrow involvement as the only manifestations of disease, and those who had severe intercurrent illness requiring intensive management or were transfusion dependent, were excluded. […] Other requirements were demonstrable progression of disease in the previous 3 months, after standard treatments such as surgery, chemotherapy, radiotherapy, and/or immunotherapy, or progressive disease after declining conventional treatment modalities.
Six patients were to be enrolled at each dose level. After 4 patients were enrolled at level I, if one patient experienced dose-limiting toxicity (DLT) (defined as Hct<80% of baseline), 2 more patients were enrolled at level I. If no DLT was observed, patients were enrolled at the next dose level. Treatment was allowed to continue beyond induction of target copper deficiency, if the patients experienced a partial or complete clinical response or achieved clinical stable disease by the following definitions. Complete response is defined as the disappearance of all clinical and laboratory signs and symptoms of active disease. Partial response is defined as a 50% or greater reduction in the size of measurable lesions defined by the sum of the products of the longest perpendicular diameters of the lesions, with no new lesions or lesions increasing in size. Minor response is defined as a 25-49% reduction in the sum of the products of the longest perpendicular diameters of one or more measurable lesions, no increase in size of any lesions and no new lesions; stable disease is any change in tumor measurements not represented by the criteria for response or progressive disease, which is defined as an increase of 25% or more in the sum of the products of the longest perpendicular diameters of any measurable indicator lesions, compared to the smallest previous measurement or appearance of a new lesion. Because copper deficiency is not a cytotoxic treatment modality, the patients who provide information about the efficacy of TM for long-term therapy, in this population of patients with advanced cancer, are primarily those who remained within the target Cp window of (20±10)% of baseline for over 90 days, without disease progression
Extent of disease was evaluated at entry, at the point of achievement of copper deficiency, defined as Cp at or below 20% of baseline, and every 10-12 weeks thereafter. Computer-assisted tomography or magnetic resonance imaging were used as appropriate for conventional measurement of disease at all known sites and for evaluation of any potential new sites of disease. Angiogenesis-sensitive ultrasound with 3-dimensional Doppler analyses was employed in select cases, as adjunct to conventional imaging, to evaluate the blood flow to the tumors at different time points.
Blood flow was measured by ultrasound in select patients with accessible lesions, at the time they became copper deficient, and at variable intervals of 8-16 weeks thereafter. 3D scanning was performed on a GE Logiq 700 ultrasound system, with the 739L, 7.5 MHz linear array scanhead. The scanning and vascularity quantification techniques were as previously described (Carson et al., 1998; LeCarpentier et al., 1999).

copper metabolism = assay: Open label study of TM for initial treatment of Wilson's disease patients; type: in vivo, human
Excerpt: The inventors have carried out an open label study of the use of TM for initial treatment of neurologically presenting Wilson's disease patients for the past several years. The inventors have developed both a spectrophotometric and bioassay for the activity of the drug, to evaluate stability, and assure potency of the drug being administered (Brewer et al., 1991a; Brewer et al., 1994b). The drug slowly loses potency when exposed to air.
The inventors have now treated a total of 51 Wilson's disease patients with TM, all of whom presented with neurological or psychiatric disease, in an open label study. These patients were all diagnosed by standard criteria. […] Some of them were treated briefly with other agents prior to this trial. Two patients had psychiatric but not neurological symptoms.
With three exceptions in the earliest part of the study, all patients received a dose of 20 mg tid with meals, or qid with three meals and a snack. Thus, the only difference between a patient receiving 120 mg and 140 mg total dose is that the former was receiving 20 mg tid, or 60 mg, with meals, and the latter was receiving 20 mg qid, or 80 mg with meals plus a snack. The rest of the total daily dose was divided up into three equal doses and given between meals.
TM impacts quickly and favorably on copper metabolism, reducing the potentially toxic copper of the blood and theoretically, the rest of the body. The primary clinical objective is to gain control over copper toxicity while not allowing clinical worsening. In other words, the prime objective is to protect all neurological function that is present at the time therapy is started. This was evaluated weekly by quantitative neurological and speech exams. Methodology and the neurology rating scale system have been published (Young et al., 1986). During the weeks of TM administration, during which copper metabolism is being controlled, neurological function as evaluated by quantitative neurological exam, is protected.

[3] = approximately 6 mg of TM per kilogram of diet; cited from earlier work
copper toxicity = details: cited from earlier work
[4] = for eight weeks; cited from earlier work
[5] = Target Cp >90 days, + = on therapy
[6] = among the seven anemia patients

Substance: tetrathiomolybdate [TM]
- tumor growth ([1]; TM sufficient to reduce Cp to about 10% of normal, 16 days of observation): Tumor growth was slowed by the treatment, although not halted
- tumor weight normalized to total weight of the animal ([1]; TM-treated vs control mice): weighed significantly less than the tumors in control mice
- excreted in feces [2]: 5%
- excreted in urine [2]: over 90%
- t1/2 of slow plasma disappearance [2]: about 40 h
- duration of stable disease, patient with previously untreated metastatic breast cancer (metastatic solid tumors; TM alone): over 6 months
- No. of Patients: Disease progression (metastatic solid tumors; Target Cp <90 days): 7
- No. of Patients: Stable disease with partial regression of lung lesions (metastatic solid tumors; Target Cp <90 days): 1
- Duration of Cu Deficiency: Stable disease with partial regression of lung lesions (metastatic solid tumors; Target Cp <90 days, + = on therapy): 49+ days
- No. of Patients: Disease progression at one site, stable elsewhere (metastatic solid tumors; Target Cp >90 days): 1/6
- No. of Patients: Stable disease (metastatic solid tumors; Target Cp >90 days): 4/6
- No. of Patients: Stable disease with partial regression of lung lesions (metastatic solid tumors; Target Cp >90 days): 1/6
- Duration of Cu Deficiency: Stable disease, individual patients (metastatic solid tumors; Target Cp >90 days, * = patient discontinued therapy, + = on therapy): 159 days and 329 days and 351 days and 413 days
- Duration of Cu Deficiency (Average): Stable disease (metastatic solid tumors; [5]): 313 days
- Duration of Cu Deficiency: Disease progression at one site, stable elsewhere (metastatic solid tumors; [5]): 120+ days
- Duration of Cu Deficiency: Stable disease with partial regression of lung lesions (metastatic solid tumors; [5]): 120+ days
- disease status, patient with metastatic chondrosarcoma (metastatic solid tumors; long-term therapy): stable disease after 12 months of copper deficiency
- lung lesions in two patients with stable disease (metastatic solid tumors; observation periods at target Cp of 120 and 49 days): complete disappearance of some lung lesions and decrease in size of other lung lesions
- patients with stable disease (metastatic solid tumors; patients copper deficient at the target range for at least 90 days): 5 out of 6 and 5/6
- disease progression after discontinuation of TM therapy (metastatic solid tumors; patients removed from protocol): much more rapid rates of progression of disease
- decrease in blood flow to tumor mass by 3D-ultrasound (metastatic solid tumors; rib metastasis from renal cell carcinoma, approximately 8 weeks after reaching target copper deficiency): 4.4 fold
- water solubility (Water solubility): moderately water soluble
- cases of reversible anemia (copper metabolism; 45 patients treated eight weeks with TM as initial therapy): 11.1%
- patients with reduction in platelet count (copper metabolism; [6]): Three
- patients with reduction in white blood cell count (copper metabolism; [6]): four
- patients with overtreatment (copper metabolism; dose of 180 mg/day or over): 6 of 37
- patients with overtreatment (copper metabolism; dose of 150 or lower): 1 of 13
- time to close the plasma copper-molybdenum gap (free copper reduced to zero) (copper metabolism; first patient, tid with meals 7 days, then also tid between meals): 16 days
- patients with elevation of transaminase values (serum AST and ALT) (copper metabolism; human, in vivo): four
- patients with reversible anemia/bone marrow depression (copper metabolism; human, in vivo): seven
- quantitative speech exam scores (copper metabolism; initial 8 weeks of TM therapy): No patient shows significant (more than 2.0 units) reduction in scores
- TCA soluble fraction of plasma copper (copper metabolism; late stages of TM therapy, starting value 27): 15 µg/dL
- fall in hemoglobin, average (copper metabolism; patients with anemia): 3.4 g %
- patients with neurological worsening (change of more than 5 units) (copper metabolism; weeks of TM administration, quantitative neurological exam): 4 % of the sample
- effects on copper [3]: reduction of plasma ceruloplasmin and a reduction in liver and kidney copper
- tolerability of IV TM injections (copper toxicity; copper loaded sheep, 50 or 100 mg 2× weekly for up to 11 weeks): tolerated up to 22 injections of TM without clinical problems
- adverse side effects (copper toxicity; over 400 animals of commercial sheep flocks, prophylactic use): no adverse side effects
- potency retained in gelatin capsules [4]: at least 90%
